From patent US12077503B2, “Substituted cyclic amides and their use as herbicides” (FMC CORPORATION, priority 2015, dated 2024)

What was measured:
Type in all cases: in vivo
Kochia (Kochia scoparia) [1] = test: Test A preemergence; details: Bassia scoparia, pre-emergence, 240 h, 0 to 100 scale where 0 is no effect and 100 is complete control, read-out: Kochia plant response rating; for pest or weed control at 31 g/ha: 31 g ai/ha, Preemergence; for pest or weed control at 125 g/ha: 125 g ai/ha, preemergence, visual injury rating, approximately 10 d
How it was run: (§1)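 Seeds sprayed preemergence with a directed soil spray, or plants at 2 to 10 cm height and one- to two-leaf stage sprayed postemergence, with test chemicals in a non-phytotoxic solvent mixture containing surfactant, in loam soil–sand blend. Injury rated visually against untreated controls after about 10 d in greenhouse, 0 (no effect) to 100 (complete control).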

[2] = tested on: barnyardgrass (Echinochloa crus-galli); test: Test A preemergence; details: Echinochloa crus-galli, pre-emergence, 240 h, 0 to 100 scale where 0 is no effect and 100 is complete control, read-out: Barnyardgrass plant response rating; for pest or weed control at 31 g/ha: 31 g ai/ha, Preemergence; for pest or weed control at 125 g/ha: 125 g ai/ha, preemergence, visual injury rating, approximately 10 d
How it was run: as §1

[3] = tested on: giant foxtail (Setaria faberii); test: Test A preemergence; details: Setaria faberi, pre-emergence, 240 h, 0 to 100 scale where 0 is no effect and 100 is complete control, read-out: Foxtail, Giant plant response rating; for pest or weed control at 31 g/ha: 31 g ai/ha, Preemergence; for pest or weed control at 125 g/ha: 125 g ai/ha, preemergence, visual injury rating, approximately 10 d
How it was run: as §1

[4] = tested on: pigweed (Amaranthus retroflexus); test: Test A preemergence; details: Amaranthus retroflexus, pre-emergence, 240 h, 0 to 100 scale where 0 is no effect and 100 is complete control, read-out: Pigweed plant response rating; for pest or weed control at 31 g/ha: 31 g ai/ha, Preemergence; for pest or weed control at 125 g/ha: 125 g ai/ha, preemergence, visual injury rating, approximately 10 d
[5] = tested on: ragweed (common ragweed, Ambrosia elatior); test: Test A preemergence; details: Ambrosia artemisiifolia, pre-emergence, 240 h, 0 to 100 scale where 0 is no effect and 100 is complete control, read-out: Ragweed plant response rating; for pest or weed control at 31 g/ha: 31 g ai/ha, Preemergence; for pest or weed control at 125 g/ha: 125 g ai/ha, preemergence, visual injury rating, approximately 10 d
How it was run: as §1

[6] = tested on: ryegrass, Italian (Italian ryegrass, Lolium multiflorum); test: Test A preemergence; details: Lolium multiflorum, pre-emergence, 240 h, 0 to 100 scale where 0 is no effect and 100 is complete control, read-out: Ryegrass, Italian plant response rating; for pest or weed control at 31 g/ha: 31 g ai/ha, Preemergence; for pest or weed control at 125 g/ha: 125 g ai/ha, preemergence, visual injury rating, approximately 10 d
How it was run: as §1

[7] = tested on: Galium (catchweed bedstraw, Galium aparine); test: Test A postemergence; details: Galium, post-emergence, 240 h, read-out: Galium plant response rating (0 to 100 scale); for pest or weed control at 125 g/ha: 125 g ai/ha, postemergence, visual injury vs untreated controls after approx. 10 d, 0 = no effect, 100 = complete control; for pest or weed control at 31 g/ha: Postemergence, 31 g ai/ha, 0 is no effect, 100 is complete control
How it was run: as §1

Kochia (Kochia scoparia) [8] = test: Test A postemergence; details: Bassia scoparia, post-emergence, 240 h, read-out: Kochia plant response rating (0 to 100 scale); for pest or weed control at 125 g/ha: 125 g ai/ha, postemergence, visual injury vs untreated controls after approx. 10 d, 0 = no effect, 100 = complete control; for pest or weed control at 31 g/ha: Postemergence, 31 g ai/ha, 0 is no effect, 100 is complete control
How it was run: as §1

[9] = tested on: barnyardgrass (Echinochloa crus-galli); test: Test A postemergence; details: Echinochloa crus-galli, post-emergence, 240 h, read-out: Barnyardgrass plant response rating (0 to 100 scale); for pest or weed control at 125 g/ha: 125 g ai/ha, postemergence, visual injury vs untreated controls after approx. 10 d, 0 = no effect, 100 = complete control; for pest or weed control at 31 g/ha: Postemergence, 31 g ai/ha, 0 is no effect, 100 is complete control
How it was run: as §1

[10] = tested on: blackgrass (Alopecurus myosuroides); test: Test A postemergence; details: Alopecurus myosuroides, post-emergence, 240 h, read-out: Blackgrass plant response rating (0 to 100 scale); for pest or weed control at 125 g/ha: 125 g ai/ha, postemergence, visual injury vs untreated controls after approx. 10 d, 0 = no effect, 100 = complete control; for pest or weed control at 31 g/ha: Postemergence, 31 g ai/ha, 0 is no effect, 100 is complete control
How it was run: as §1

corn (Zea mays) = test: Test A postemergence; details: Zea mays, post-emergence, 240 h, read-out: Corn plant response rating (0 to 100 scale); for plant injury at 125 g/ha: 125 g ai/ha, postemergence, visual injury vs untreated controls after approx. 10 d, 0 = no effect, 100 = complete control; for plant injury at 31 g/ha: Postemergence, 31 g ai/ha, 0 is no effect, 100 is complete control
How it was run: as §1

[11] = tested on: giant foxtail (Setaria faberii); test: Test A postemergence; details: Setaria faberi, post-emergence, 240 h, read-out: Foxtail, Giant plant response rating (0 to 100 scale); for pest or weed control at 125 g/ha: 125 g ai/ha, postemergence, visual injury vs untreated controls after approx. 10 d, 0 = no effect, 100 = complete control; for pest or weed control at 31 g/ha: Postemergence, 31 g ai/ha, 0 is no effect, 100 is complete control
How it was run: as §1

[12] = tested on: pigweed (Amaranthus retroflexus); test: Test A postemergence; details: Amaranthus retroflexus, post-emergence, 240 h, read-out: Pigweed plant response rating (0 to 100 scale); for pest or weed control at 125 g/ha: 125 g ai/ha, postemergence, visual injury vs untreated controls after approx. 10 d, 0 = no effect, 100 = complete control; for pest or weed control at 31 g/ha: Postemergence, 31 g ai/ha, 0 is no effect, 100 is complete control
How it was run: as §1

[13] = tested on: ragweed (common ragweed, Ambrosia elatior); test: Test A postemergence; details: Ambrosia artemisiifolia, post-emergence, 240 h, read-out: Ragweed plant response rating (0 to 100 scale); for pest or weed control at 125 g/ha: 125 g ai/ha, postemergence, visual injury vs untreated controls after approx. 10 d, 0 = no effect, 100 = complete control; for pest or weed control at 31 g/ha: Postemergence, 31 g ai/ha, 0 is no effect, 100 is complete control
How it was run: as §1

[14] = tested on: ryegrass, Italian (Italian ryegrass, Lolium multiflorum); test: Test A postemergence; details: Lolium multiflorum, post-emergence, 240 h, read-out: Ryegrass, Italian plant response rating (0 to 100 scale); for pest or weed control at 125 g/ha: 125 g ai/ha, postemergence, visual injury vs untreated controls after approx. 10 d, 0 = no effect, 100 = complete control; for pest or weed control at 31 g/ha: Postemergence, 31 g ai/ha, 0 is no effect, 100 is complete control
How it was run: as §1

[15] = tested on: wheat (Triticum aestivum); test: Test A postemergence; details: Triticum aestivum, post-emergence, 240 h, Postemergence, 31 g ai/ha; 0 is no effect, 100 is complete control; read-out: Wheat plant response rating (0 to 100 scale)
How it was run: as §1

[16] = tested on: barnyardgrass (Echinochloa crus-galli); test: Test B flooded paddy test; details: Echinochloa crus-galli, 250 g ai/ha, Flood; 0 to 100 scale where 0 is no effect and 100 is complete control; read-out: Barnyardgrass plant response rating
How it was run: (§2)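 Greenhouse paddy pots with 2-leaf stage plants received compound by direct addition to floodwater 3 cm deep, kept at that level. Scored visually at 13–15 d versus controls (0 no effect; 100 complete control).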

[17] = tested on: ducksalad (Heteranthera limosa); test: Test B flooded paddy test; details: Heteranthera limosa, 250 g ai/ha, Flood; 0 to 100 scale where 0 is no effect and 100 is complete control; read-out: Ducksalad plant response rating
How it was run: as §2

rice (Oryra sativa) = test: Test B flooded paddy test; details: Oryza sativa, 250 g ai/ha, Flood; 0 to 100 scale where 0 is no effect and 100 is complete control; read-out: Rice plant response rating
How it was run: as §2

[18] = tested on: sedge, umbrella (small-flower umbrella sedge, Cyperus difformis); test: Test B flooded paddy test; details: Cyperus difformis, 250 g ai/ha, Flood; 0 to 100 scale where 0 is no effect and 100 is complete control; read-out: Sedge, Umbrella plant response rating
How it was run: as §2

O=C1NC[C@H](c2ccc(F)c(Oc3ccccc3)c2)[C@H]1C(=O)Nc1cccc(F)c1F [Compound 1258]
pest or weed control at 31 g/ha (Kochia (Kochia scoparia) [1]): 0%
pest or weed control at 125 g/ha (Kochia (Kochia scoparia) [1]): 0%
pest or weed control at 31 g/ha [2]: 0%
pest or weed control at 125 g/ha [2]: 30%
pest or weed control at 31 g/ha [3]: 40%
pest or weed control at 125 g/ha [3]: 70%
pest or weed control at 31 g/ha [4]: 0%
pest or weed control at 125 g/ha [4]: 0%
pest or weed control at 31 g/ha [5]: 0%
pest or weed control at 125 g/ha [5]: 0%
pest or weed control at 31 g/ha [6]: 0%
pest or weed control at 125 g/ha [6]: 0%
pest or weed control at 125 g/ha [7]: 80%
pest or weed control at 31 g/ha [7]: 70%
pest or weed control at 125 g/ha (Kochia (Kochia scoparia) [8]): 0%
pest or weed control at 31 g/ha (Kochia (Kochia scoparia) [8]): 0%
pest or weed control at 125 g/ha [9]: 70%
pest or weed control at 31 g/ha [9]: 30%
pest or weed control at 125 g/ha [10]: 0%
pest or weed control at 31 g/ha [10]: 0%
plant injury at 125 g/ha (corn (Zea mays)): 40%
plant injury at 31 g/ha (corn (Zea mays)): 0%
pest or weed control at 125 g/ha [11]: 60%
pest or weed control at 31 g/ha [11]: 30%
pest or weed control at 125 g/ha [12]: 30%
pest or weed control at 31 g/ha [12]: 0%
pest or weed control at 125 g/ha [13]: 0%
pest or weed control at 31 g/ha [13]: 0%
pest or weed control at 125 g/ha [14]: 0%
pest or weed control at 31 g/ha [14]: 0%
plant injury at 31 g/ha [15]: 0%
pest or weed control at 250 g/ha [16]: 40%
pest or weed control at 250 g/ha [17]: 0%
pest or weed control at 250 g/ha (rice (Oryra sativa)): 0%
pest or weed control at 250 g/ha [18]: 0%

Cc1c(F)cccc1NC(=O)[C@H]1C(=O)N(C)C[C@@H]1c1ccc(C(F)F)cc1 [Compound 1261]
pest or weed control at 31 g/ha (Kochia (Kochia scoparia) [1]): 70%
pest or weed control at 125 g/ha (Kochia (Kochia scoparia) [1]): 80%
pest or weed control at 31 g/ha [2]: 90%
pest or weed control at 125 g/ha [2]: 90%
pest or weed control at 31 g/ha [3]: 90%
pest or weed control at 125 g/ha [3]: 90%
pest or weed control at 31 g/ha [4]: 0%
pest or weed control at 125 g/ha [4]: 20%
pest or weed control at 31 g/ha [5]: 50%
pest or weed control at 125 g/ha [5]: 50%
pest or weed control at 31 g/ha [6]: 20%
pest or weed control at 125 g/ha [6]: 30%
pest or weed control at 125 g/ha [7]: 60%
pest or weed control at 31 g/ha [7]: 50%
pest or weed control at 125 g/ha (Kochia (Kochia scoparia) [8]): 50%
pest or weed control at 31 g/ha (Kochia (Kochia scoparia) [8]): 20%
pest or weed control at 125 g/ha [9]: 90%
pest or weed control at 31 g/ha [9]: 90%
pest or weed control at 125 g/ha [10]: 60%
pest or weed control at 31 g/ha [10]: 40%
plant injury at 125 g/ha (corn (Zea mays)): 80%
plant injury at 31 g/ha (corn (Zea mays)): 50%
pest or weed control at 125 g/ha [11]: 90%
pest or weed control at 31 g/ha [11]: 90%
pest or weed control at 125 g/ha [12]: 30%
pest or weed control at 31 g/ha [12]: 0%
pest or weed control at 125 g/ha [13]: 30%
pest or weed control at 31 g/ha [13]: 0%
pest or weed control at 125 g/ha [14]: 50%
pest or weed control at 31 g/ha [14]: 20%
plant injury at 31 g/ha [15]: 20%
pest or weed control at 250 g/ha [16]: 75%
pest or weed control at 250 g/ha [17]: 100%
pest or weed control at 250 g/ha (rice (Oryra sativa)): 50%
pest or weed control at 250 g/ha [18]: 0%
